Assay results published in patent US20250248391A1, “VIABLE VITREOUS GRAFTS FOR PRESERVATION AND RECOVER OF TISSUE FOR TRANSPLANT AND CLINICAL USE” (Clemson University Research Foundation, priority 2024, published 2025).
Where two headings read alike, the source gives them in different places.

Assays:
[1] = alamarBlue metabolic activity of meniscal specimens; format: cell-based, Yorkshire pigs; settings: 3.5 mm/SF: 3.5 mm specimens slow-frozen in Me2SO (10% v/v), normalized to specimen before treatment
Description: (§1) Following the completion of the warming and unloading steps, all tissues were subjected to recovery in DMEM supplemented with 1% P/S (e.g., DMEM/P/S) for one hour within a 37° C. incubator. Subsequently, the alamarBlue assay was conducted to assess the metabolic activity of tissues. This assay employs a water soluble fluorometric viability indicator, relying on the detection of metabolic activity. […] In the case of each meniscal specimen and each TMJ disc, evaluations were carried out both before and after different preservation treatments. For the whole meniscus, each fresh, slow-frozen, or vitrified sample underwent manual sectioning into sagittal sections, each measuring 1-2 mm in thickness, spanning from anterior to posterior horn. Within each region, a minimum of three sections were obtained.
(§2) Either each individual specimen or each section of the whole meniscus was incubated in 1 ml of DMEM/P/S and 100 μl alamarBlue reagent. This process was carried out under standard cell culture conditions for 3 hours. In contrast, each whole TMJ disc was incubated in 5.4 ml of DMEM/P/S and 600 μl alamarBlue reagent under standard cell culture conditions for 4 hours. Subsequently, fluorescence measurements were conducted in duplicate using a multimode microplate reader at an excitation wavelength of 544 nm and an emission wavelength of 590 nm. Following assessment, each sample was rinsed with DMEM/P/S for 30 mins to remove the alamarBlue reagent prior to proceeding with subsequent measurements. The time-course viability from day 0 to day 4 for each sample was assessed. In the case of meniscal specimens and whole TMJ discs, the results (expressed in relative fluorescence unit, RFU) of the slow-frozen and vitrified groups were normalized to the measurements taken from their respective fresh samples before any preservation treatments were applied. For the measurements of the whole meniscus, the results (expressed as RUF/mg of dry weight) from the slow-frozen and vitrified menisci were normalized to the corresponding values of fresh menisci within the same batch. Dry weight values of samples were measured using an analytical balance after being placed in a 60° C. oven over 48 hours subsequent to the completion of the time-course alamarBlue assay.

whole menisci [2] = assay: Fluorescence live/dead viability of whole menisci; format: cell-based, Yorkshire pigs; settings: for Viability (%): whole menisci, SF (slow-frozen in Me2SO 10% v/v)
Description: (§3) Tissue viability was assessed by fluorescence live/dead staining. Each cylindrical specimen was longitudinally divided into two sections for imaging along the sagittal plane. To comprehensively assess the whole meniscus, both transverse and sagittal sections were prepared. In the case of transverse sections, a 300 μm thick slice of the whole meniscus was obtained using a vibrating blade microtome due to its larger surface area. For sagittal sections, approximately 1-2 mm thick slices were manually cut from corresponding regions. For the TMJ disc samples, strips measuring 6 mm in width, encompassing the anterior, central, posterior, medial, and lateral regions, were manually excised from the whole disc using a scalpel. All cut meniscal slices were immersed in DMEM with 1% P/S culture medium with 4 μM calcein AM and 2 μM ethidium homodimer-1 at room temperature for 2 hours before imaging. In contrast, the TMJ slices underwent staining with distinct dye concentrations: 2 µM calcein AM and 4 μM ethidium homodimer-1, following the same set of conditions. The green-fluorescent calcein indicates living cells by intracellular esterase activity, while the red-fluorescent ethidium homodimer-1 indicates dead cells by loss of plasma membrane integrity. All images were captured using an inverted multiphoton laser scanning microscope. The excitation wavelength was set as 800 nm. Green fluorescence was collected within the 495-540 nm range, and red fluorescence was collected in the 575-630 nm range. Images were taken at a depth of 60 μm below the tissue surface. The whole transverse section images of the whole menisci and the whole sagittal section images of the TMJ disc strips were captured using a 4× objective magnification and stitched together. An interesting view of each region was imaged using a higher objective magnification of 10×. All sagittal section images for meniscal specimens, three primary regions of whole menisci, and five primary regions of whole TMJ discs were captured using a 10× objective magnification for quantitative analysis. Live/dead quantification of 3.5 mm thick specimens was performed within the middle layer image (with a thickness of 1.26 mm) to avoid the count of dead cells on both surfaces associated with manual sectioning. In the context of sagittal sections in each region of the whole meniscus, images were acquired, and cell viability was quantified for the inner, middle, and outer layers. Images of sagittal sections in each region of the TMJ disc were acquired and used for viability quantification. Live/dead quantification was performed using software. Cell viability was defined as the proportion between the count of viable cells and the total cell count (comprising both live and dead cells).

whole menisci [3] = assay: alamarBlue metabolic activity of whole menisci; format: cell-based, Yorkshire pigs
Description: as §1, §2

whole TMJ discs [4] = assay: Fluorescence live/dead viability of whole TMJ discs; format: cell-based, Yorkshire pigs; settings: for Viability (%): Slow-frozen (Me2SO 10% v/v)
Description: as §3

whole TMJ discs [5] = assay: alamarBlue metabolic activity of whole TMJ discs; format: cell-based, Yorkshire pigs; settings: Slow-frozen (Me2SO 10% v/v)
Description: as §1, §2

[6] = articular cartilage of calves, 22° C.; 3.1M Me2SO, 3.1M PG, 2.2M formamide; ref [4]; cited from earlier work
[7] = 6.5M, porcine articular cartilage, ref [5], cited from earlier work
[8] = human articular cartilage, ref [6], cited from earlier work
[9] = 1.4M, tissue-engineered collagen scaffold, 20° C.; ref [7]; cited from earlier work

## C[S+](C)[O-] [Me2SO, dimethyl sulfoxide]
[1]; Day 0 post-warming
  Metabolic activity, Viability (%): 47.0 ± 16.4%
[1]; Day 1
  Metabolic activity, Viability (%): 43.0 ± 21.0%
[1]; Day 2
  Metabolic activity, Viability (%): 39.0 ± 19.8%
[1]; Day 3
  Metabolic activity, Viability (%): 39.5 ± 16.3%
[1]; Day 4
  Metabolic activity, Viability (%): 52.6 ± 14.5%
Whole menisci [2]; slow freezing (Me2SO 10% v/v)
  viability in whole menisci, average: ~21.6%
Whole menisci [2]; Anterior region
  Viability (%): 19.5 ± 9.6%
Whole menisci [2]; Central region
  Viability (%): 23.7 ± 6.4%
Whole menisci [2]; Inner layer of sagittal sections
  Viability (%): 20.3 ± 13.8%
Whole menisci [2]; Middle layer of sagittal sections
  Viability (%): 20.8 ± 8.9%
Whole menisci [2]; Outer layer of sagittal sections
  Viability (%): 24.6 ± 16.9%
Whole menisci [2]; Posterior region
  Viability (%): 21.4 ± 18.2%
Whole menisci [3]; Anterior: SF (slow-frozen in Me2SO 10% v/v), Day 0 post-warming, normalized to fresh menisci day 0
  Metabolic activity, Viability (%): 32.9 ± 11.1%
Whole menisci [3]; Anterior: SF (slow-frozen in Me2SO 10% v/v), Day 1, normalized to fresh menisci day 0
  Metabolic activity, Viability (%): 39.7 ± 10.1%
Whole menisci [3]; Anterior: SF (slow-frozen in Me2SO 10% v/v), Day 2, normalized to fresh menisci day 0
  Metabolic activity, Viability (%): 31.4 ± 7.8%
Whole menisci [3]; Anterior: SF (slow-frozen in Me2SO 10% v/v), Day 3, normalized to fresh menisci day 0
  Metabolic activity, Viability (%): 34.0 ± 6.9%
Whole menisci [3]; Anterior: SF (slow-frozen in Me2SO 10% v/v), Day 4, normalized to fresh menisci day 0
  Metabolic activity, Viability (%): 36.7 ± 7.5%
Whole menisci [3]; Central: SF (slow-frozen in Me2SO 10% v/v), Day 0 post-warming, normalized to fresh menisci day 0
  Metabolic activity, Viability (%): 43.1 ± 13.8%
Whole menisci [3]; Central: SF (slow-frozen in Me2SO 10% v/v), Day 1, normalized to fresh menisci day 0
  Metabolic activity, Viability (%): 55.4 ± 16.8%
Whole menisci [3]; Central: SF (slow-frozen in Me2SO 10% v/v), Day 2, normalized to fresh menisci day 0
  Metabolic activity, Viability (%): 35.1 ± 11.4%
Whole menisci [3]; Central: SF (slow-frozen in Me2SO 10% v/v), Day 3, normalized to fresh menisci day 0
  Metabolic activity, Viability (%): 37.3 ± 9.6%
Whole menisci [3]; Central: SF (slow-frozen in Me2SO 10% v/v), Day 4, normalized to fresh menisci day 0
  Metabolic activity, Viability (%): 35.3 ± 11.4%
Whole menisci [3]; Posterior: SF (slow-frozen in Me2SO 10% v/v), Day 0 post-warming, normalized to fresh menisci day 0
  Metabolic activity, Viability (%): 38.0 ± 9.3%
Whole menisci [3]; Posterior: SF (slow-frozen in Me2SO 10% v/v), Day 1, normalized to fresh menisci day 0
  Metabolic activity, Viability (%): 47.1 ± 7.2%
Whole menisci [3]; Posterior: SF (slow-frozen in Me2SO 10% v/v), Day 2, normalized to fresh menisci day 0
  Metabolic activity, Viability (%): 34.9 ± 7.3%
Whole menisci [3]; Posterior: SF (slow-frozen in Me2SO 10% v/v), Day 3, normalized to fresh menisci day 0
  Metabolic activity, Viability (%): 42.4 ± 7.4%
Whole menisci [3]; Posterior: SF (slow-frozen in Me2SO 10% v/v), Day 4, normalized to fresh menisci day 0
  Metabolic activity, Viability (%): 45.7 ± 13.5%
Whole TMJ discs [4]; Anterior
  Viability (%): 37.4 ± 2.7%
Whole TMJ discs [4]; Central
  Viability (%): 40.1 ± 4.2%
Whole TMJ discs [4]; Lateral
  Viability (%): 39.0 ± 2.7%
Whole TMJ discs [4]; Medial
  Viability (%): 38.3 ± 3.5%
Whole TMJ discs [4]; Posterior
  Viability (%): 37.1 ± 2.2%
Whole TMJ discs [4]; slow-frozen samples (Me2SO 10% v/v)
  viability: less than 40%
Whole TMJ discs [5]; Day 0 post-warming, relative to respective fresh values
  Metabolic activity, Viability (%): 32.0 ± 0.8%
Whole TMJ discs [5]; Day 1, relative to respective fresh values
  Metabolic activity, Viability (%): 33.3 ± 0.5%
Whole TMJ discs [5]; Day 2, relative to respective fresh values
  Metabolic activity, Viability (%): 28.9 ± 0.5%
Whole TMJ discs [5]; Day 3, relative to respective fresh values
  Metabolic activity, Viability (%): 29.1 ± 1.7%
Whole TMJ discs [5]; Day 4, relative to respective fresh values
  Metabolic activity, Viability (%): 28.0 ± 0.6%
[6]
  D (× 10^−10 m^2/s): 4.63 ± 0.85 × 10^−10 m^2/s
[7]; 4° C.
  D (× 10^−10 m^2/s): 2.4 × 10^−10 m^2/s
[7]; 22° C.
  D (× 10^−10 m^2/s): 3.0 × 10^−10 m^2/s
[7]; 37° C.
  D (× 10^−10 m^2/s): 4.5 × 10^−10 m^2/s
[8]; 1.4M, 4° C.
  D (× 10^−10 m^2/s): 6.1 × 10^−10 m^2/s
[8]; 1.4M, 27° C.
  D (× 10^−10 m^2/s): 14.4 × 10^−10 m^2/s
[8]; 14M, 4° C.
  D (× 10^−10 m^2/s): 3.1 × 10^−10 m^2/s
[8]; 14M, 27° C.
  D (× 10^−10 m^2/s): 6.8 × 10^−10 m^2/s
[9]
  D (× 10^−10 m^2/s): 2.4 × 10^−10 m^2/s

## CC(O)CO (stereo not shown) [PG, propylene glycol]
[6]
  D (× 10^−10 m^2/s): 3.47 ± 0.67 × 10^−10 m^2/s
[7]; 4° C.
  D (× 10^−10 m^2/s): 0.9 × 10^−10 m^2/s
[7]; 22° C.
  D (× 10^−10 m^2/s): 1.6 × 10^−10 m^2/s
[7]; 37° C.
  D (× 10^−10 m^2/s): 2.2 × 10^−10 m^2/s

## NC=O [formamide]
[6]
  D (× 10^−10 m^2/s): 6.67 ± 0.70 × 10^−10 m^2/s
